The target in assay [1] is Vasopressin V1a receptor (Homo sapiens, UniProt P37288). The assay is described as follows: Assay with bioluminescence detection (AVPR1). (The vasopressin receptor cells react to stimulation of the recombinantly expressed V1a receptors by intracellular release of calcium ions, which can be quantified by the resulting photoprotein luminescence). It counts as functional, cell-based, CHO-K1.

The target of assay [2] is Transient receptor potential cation channel subfamily M member 7 (Homo sapiens) (UniProt Q96QT4). Nature of the assay: Inhibition of ChaK1(h) at 10.0 µM in the Eurofins Kinase panel. As to conditions: Compound concentration 10.0 uM; call rule not given here.
Assay [3] concerns the target Ephrin type-B receptor 4 (Homo sapiens) (UniProt P54760). Nature of the assay: Inhibition of EphB4(h) at 10.0 µM in the Eurofins Kinase panel. As to conditions: Compound concentration 10.0 uM.
Assay [4] addresses Serine/threonine-protein kinase ICK (Homo sapiens) (UniProt Q9UPZ9). Nature of the assay: Inhibition of ICK(h) at 10.0 µM in the Eurofins Kinase panel. As to conditions: Compound concentration 10.0 uM.
Assay [5] concerns the target Insulin-like growth factor 1 receptor (Homo sapiens) (UniProt P08069). Nature of the assay: Inhibition of IGF-1R(h) at 10.0 µM in the Eurofins Kinase panel. To be noted: Compound concentration 10.0 uM.
Assay [6] has as its target Hepatocyte growth factor receptor (Homo sapiens) (UniProt P08581). The assay is described as follows: Inhibition of Met(h) at 10.0 µM in the Eurofins Kinase panel. As to conditions: Compound concentration 10.0 uM.
The target in assay [7] is Serine/threonine-protein kinase Nek1 (Homo sapiens) (UniProt Q96PY6). The assay is described as follows: Inhibition of NEK1(h) at 10.0 µM in the Eurofins Kinase panel. To be noted: Compound concentration 10.0 uM.
The species named for assay [8] is Rattus norvegicus. To be noted: Compound concentration 10.0 uM.
The species entered for assay [9] is Oryctolagus cuniculus. As to conditions: Compound concentration 10.0 uM.
Assay [10] deals with Growth hormone secretagogue receptor type 1 (Homo sapiens) (UniProt Q92847). As to conditions: Compound concentration 10.0 uM.
The target in assay [11] is B1 bradykinin receptor (Homo sapiens) (UniProt P46663). Nature of the assay: Inhibition of Bradykinin B1 at 10 µM in the Eurofins-Panlabs radioligand binding assay (Eurofins_assay_212510). As to conditions: Compound concentration 10.0 uM.
Assay [12] addresses Voltage-dependent N-type calcium channel subunit alpha-1B (Homo sapiens) (UniProt Q00975). The assay is described as follows: Inhibition of Calcium Channel N-Type at 10 µM in the Eurofins-Panlabs radioligand binding assay (Eurofins_assay_216000). As to conditions: Rattus norvegicus; Compound concentration 10.0 uM.
Assay [13] addresses Cysteinyl leukotriene receptor 1 (Homo sapiens) (UniProt Q9Y271). Nature of the assay: Inhibition of Leukotriene, Cysteinyl CysLT1 at 10 µM in the Eurofins-Panlabs radioligand binding assay (Eurofins_assay_250460). To be noted: Compound concentration 10.0 uM. More on the design: ligand concentration 0.3 nM, non-specific ligand with concentration 0.3 µM Leukotriene D4, incubation time 30 min, incubation temperature 25 °C.

Assay [14] has as its target Melatonin receptor type 1A (Homo sapiens) (UniProt P48039). The assay is described as follows: Inhibition of Melatonin MT1 at 10 µM in the Eurofins-Panlabs radioligand binding assay (Eurofins_assay_251600). More on the design: ligand concentration 0.05 nM. As to conditions: Compound concentration 10.0 uM.
The target in assay [15] is Prostaglandin E2 receptor EP4 subtype (Homo sapiens) (UniProt P35408). Nature of the assay: Inhibition of Prostanoid EP4 at 10 µM in the Eurofins-Panlabs radioligand binding assay (Eurofins_assay_268420). To be noted: Compound concentration 10.0 uM. Set-up: ligand concentration 1 nM.
Assay [16] deals with Substance-P receptor (Homo sapiens) (UniProt P25103). The assay is described as follows: Inhibition of Tachykinin NK1 at 10 µM in the Eurofins-Panlabs radioligand binding assay (Eurofins_assay_255520). Set-up: ligand concentration 0.8 nM. To be noted: Compound concentration 10.0 uM.
For assay [17], the target named is Neutrophil elastase (Homo sapiens) (UniProt P08246). The assay is described as follows: Inhibition of Peptidase, ELA2 (Neutrophil Elastase 2) at 10 µM in the Eurofins-Panlabs enzyme assay (Eurofins_assay_166010). To be noted: Compound concentration 10.0 uM.
In assay [18] the target is Phosphodiesterase 3 (Homo sapiens) (UniProt Q14432+Q13370). Nature of the assay: Inhibition of Phosphodiesterase PDE3 at compound concentration of 10.0 uM in the Eurofins-Panlabs enzyme assay (Eurofins_assay_152000). More on the design: substrate with concentration 1.01 uM [3H] cAMP + cAMP, incubation time 20 min, incubation temperature 25 C. To be noted: Compound concentration 10.0 uM. It counts as protein assay.

The target of assay [19] is Mitogen-activated protein kinase 3 (Homo sapiens) (UniProt P27361). The assay is described as follows: Inhibition of Protein Serine/Threonine Kinase, MAPK3 (ERK1) at 10 µM in the Eurofins-Panlabs enzyme assay (Eurofins_assay_171000). To be noted: Compound concentration 10.0 uM.
The target of assay [20] is Epidermal growth factor receptor (Homo sapiens) (UniProt P00533). Nature of the assay: Inhibition of Protein Tyrosine Kinase, EGF Receptor at 10 µM in the Eurofins-Panlabs enzyme assay (Eurofins_assay_170020). Set-up: substrate with concentration. To be noted: Compound concentration 10.0 uM.
Assay [21] addresses Receptor tyrosine-protein kinase erbB-2 (Homo sapiens) (UniProt P04626). Nature of the assay: Inhibition of Protein Tyrosine Kinase, ERBB2 (HER2) at 10 µM in the Eurofins-Panlabs enzyme assay (Eurofins_assay_174020). More on the design: substrate with concentration. To be noted: Compound concentration 10.0 uM.
A short description of assay [22]: Inhibition of Platelet-Derived Growth Factor (PDGF) at 10 µM in the Eurofins-Panlabs radioligand binding assay (Eurofins_assay_265200). As to conditions: Compound concentration 10 uM; Detection method Radioligand Binding; Incubation temperature 25 °C; Incubation time 45 min; Ligand [3H]PDGF; Ligand concentration 0.02 nM; Non-specific ligand with concentration 10 nM PDGF; Source of protein Swiss mouse 3T3 embryo cells.

Assay [23] concerns the target Substance-K receptor (Homo sapiens) (UniProt P21452). Nature of the assay: Inhibition of Tachykinin NK2 at 10 µM in the Eurofins-Panlabs radioligand binding assay (Eurofins_assay_255600). More on the design: ligand concentration 0.5 nM. To be noted: Compound concentration 10.0 uM.
Assay [24] concerns the target Protein kinase C alpha type (Homo sapiens) (UniProt P17252). The assay is described as follows: Inhibition of Protein Serine/Threonine Kinase, PRKCA (PKCα) at 10 µM in the Eurofins-Panlabs enzyme assay (Eurofins_assay_180010). As to conditions: Compound concentration 10.0 uM. Set-up: substrate with concentration Histone, incubation time 10 min, incubation temperature 25 °C.

Assay [25] deals with Aldo-keto reductase family 1 member B1 (Rattus norvegicus) (UniProt P07943). Nature of the assay: Inhibition of Aldose Reductase at compound concentration of 10.0 uM in the Eurofins-Panlabs enzyme assay (Eurofins_assay_107000). Set-up: substrate with concentration. As to conditions: Compound concentration 10.0 uM.
Assay [26] deals with Glycogen synthase kinase-3 beta (Homo sapiens) (UniProt P49841). The assay is described as follows: Inhibition of GSK3beta(h) at 10.0 µM in the Eurofins Kinase panel. To be noted: Compound concentration 10.0 uM.
Assay [27] concerns the target Mitogen-activated protein kinase 14 (Homo sapiens) (UniProt Q16539). Nature of the assay: Inhibition of SAPK2a(h) at 10.0 µM in the Eurofins Kinase panel. As to conditions: Compound concentration 10.0 uM.
Assay [28] deals with Serine/threonine-protein kinase tousled-like 1 (Homo sapiens) (UniProt Q9UKI8). Nature of the assay: Inhibition of TLK1(h) at 10.0 µM in the Eurofins Kinase panel. As to conditions: Compound concentration 10.0 uM.
Assay [29] concerns the target Beta-2 adrenergic receptor (Homo sapiens) (UniProt P07550). To be noted: Compound concentration 10.0 uM.
In assay [30] the target is Mitogen-activated protein kinase kinase kinase kinase 2 (Homo sapiens) (UniProt Q12851). Nature of the assay: Inhibition of GCK (h) at 10.0 µM in the Eurofins Kinase panel. To be noted: Compound concentration 10.0 uM.

Chain of Beta-2 adrenergic receptor (Homo sapiens) (P07550 whole entry, looked up): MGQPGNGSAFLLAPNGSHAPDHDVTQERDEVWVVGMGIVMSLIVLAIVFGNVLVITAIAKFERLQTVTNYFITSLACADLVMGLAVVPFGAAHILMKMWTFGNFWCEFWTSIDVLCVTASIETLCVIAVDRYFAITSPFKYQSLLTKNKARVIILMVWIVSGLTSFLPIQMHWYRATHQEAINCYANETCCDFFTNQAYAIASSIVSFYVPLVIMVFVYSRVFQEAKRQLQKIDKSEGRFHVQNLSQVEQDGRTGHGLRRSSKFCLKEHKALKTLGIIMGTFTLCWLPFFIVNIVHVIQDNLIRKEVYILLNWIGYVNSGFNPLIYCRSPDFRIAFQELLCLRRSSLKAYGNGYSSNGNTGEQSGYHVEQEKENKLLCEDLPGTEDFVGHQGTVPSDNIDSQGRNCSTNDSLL
Chain of Insulin-like growth factor 1 receptor (Homo sapiens) (P08069 31-736 limits assumed): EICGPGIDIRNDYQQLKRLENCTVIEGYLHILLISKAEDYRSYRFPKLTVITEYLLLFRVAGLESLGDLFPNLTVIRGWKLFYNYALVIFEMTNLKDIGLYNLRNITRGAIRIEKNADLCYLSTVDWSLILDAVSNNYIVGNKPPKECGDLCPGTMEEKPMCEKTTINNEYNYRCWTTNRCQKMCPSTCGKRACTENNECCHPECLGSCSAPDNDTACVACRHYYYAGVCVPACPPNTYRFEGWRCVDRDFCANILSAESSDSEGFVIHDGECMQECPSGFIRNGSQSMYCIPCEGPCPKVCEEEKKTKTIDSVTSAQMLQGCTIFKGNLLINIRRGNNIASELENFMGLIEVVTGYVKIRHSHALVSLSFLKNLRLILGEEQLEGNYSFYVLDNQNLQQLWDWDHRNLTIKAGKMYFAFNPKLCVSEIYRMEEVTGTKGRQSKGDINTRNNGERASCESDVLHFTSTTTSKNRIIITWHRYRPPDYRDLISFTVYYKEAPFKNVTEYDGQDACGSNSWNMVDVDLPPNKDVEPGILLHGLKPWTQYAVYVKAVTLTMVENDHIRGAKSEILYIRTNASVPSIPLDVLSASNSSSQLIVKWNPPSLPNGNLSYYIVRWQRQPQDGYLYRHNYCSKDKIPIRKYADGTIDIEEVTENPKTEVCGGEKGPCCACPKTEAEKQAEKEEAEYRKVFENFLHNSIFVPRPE
Chain of Insulin-like growth factor 1 receptor (Homo sapiens) (P08069 741-1367 limits assumed): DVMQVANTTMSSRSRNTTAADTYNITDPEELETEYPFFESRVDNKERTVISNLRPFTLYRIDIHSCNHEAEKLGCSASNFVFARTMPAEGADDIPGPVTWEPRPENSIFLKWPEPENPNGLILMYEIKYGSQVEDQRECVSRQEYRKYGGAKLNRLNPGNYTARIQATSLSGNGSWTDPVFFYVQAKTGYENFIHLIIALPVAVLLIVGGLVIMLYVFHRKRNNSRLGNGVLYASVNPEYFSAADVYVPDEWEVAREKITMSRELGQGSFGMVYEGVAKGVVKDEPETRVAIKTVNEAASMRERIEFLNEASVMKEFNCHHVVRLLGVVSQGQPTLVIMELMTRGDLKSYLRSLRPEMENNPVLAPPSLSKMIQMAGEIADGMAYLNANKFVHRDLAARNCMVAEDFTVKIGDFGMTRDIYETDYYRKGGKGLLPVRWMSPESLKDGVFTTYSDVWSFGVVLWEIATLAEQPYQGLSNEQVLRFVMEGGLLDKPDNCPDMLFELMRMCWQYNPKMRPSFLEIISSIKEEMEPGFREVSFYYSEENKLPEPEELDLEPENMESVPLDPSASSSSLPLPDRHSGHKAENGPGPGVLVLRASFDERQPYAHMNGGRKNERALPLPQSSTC
Chain of Transient receptor potential cation channel subfamily M member 7 (Homo sapiens) (Q96QT4 whole entry): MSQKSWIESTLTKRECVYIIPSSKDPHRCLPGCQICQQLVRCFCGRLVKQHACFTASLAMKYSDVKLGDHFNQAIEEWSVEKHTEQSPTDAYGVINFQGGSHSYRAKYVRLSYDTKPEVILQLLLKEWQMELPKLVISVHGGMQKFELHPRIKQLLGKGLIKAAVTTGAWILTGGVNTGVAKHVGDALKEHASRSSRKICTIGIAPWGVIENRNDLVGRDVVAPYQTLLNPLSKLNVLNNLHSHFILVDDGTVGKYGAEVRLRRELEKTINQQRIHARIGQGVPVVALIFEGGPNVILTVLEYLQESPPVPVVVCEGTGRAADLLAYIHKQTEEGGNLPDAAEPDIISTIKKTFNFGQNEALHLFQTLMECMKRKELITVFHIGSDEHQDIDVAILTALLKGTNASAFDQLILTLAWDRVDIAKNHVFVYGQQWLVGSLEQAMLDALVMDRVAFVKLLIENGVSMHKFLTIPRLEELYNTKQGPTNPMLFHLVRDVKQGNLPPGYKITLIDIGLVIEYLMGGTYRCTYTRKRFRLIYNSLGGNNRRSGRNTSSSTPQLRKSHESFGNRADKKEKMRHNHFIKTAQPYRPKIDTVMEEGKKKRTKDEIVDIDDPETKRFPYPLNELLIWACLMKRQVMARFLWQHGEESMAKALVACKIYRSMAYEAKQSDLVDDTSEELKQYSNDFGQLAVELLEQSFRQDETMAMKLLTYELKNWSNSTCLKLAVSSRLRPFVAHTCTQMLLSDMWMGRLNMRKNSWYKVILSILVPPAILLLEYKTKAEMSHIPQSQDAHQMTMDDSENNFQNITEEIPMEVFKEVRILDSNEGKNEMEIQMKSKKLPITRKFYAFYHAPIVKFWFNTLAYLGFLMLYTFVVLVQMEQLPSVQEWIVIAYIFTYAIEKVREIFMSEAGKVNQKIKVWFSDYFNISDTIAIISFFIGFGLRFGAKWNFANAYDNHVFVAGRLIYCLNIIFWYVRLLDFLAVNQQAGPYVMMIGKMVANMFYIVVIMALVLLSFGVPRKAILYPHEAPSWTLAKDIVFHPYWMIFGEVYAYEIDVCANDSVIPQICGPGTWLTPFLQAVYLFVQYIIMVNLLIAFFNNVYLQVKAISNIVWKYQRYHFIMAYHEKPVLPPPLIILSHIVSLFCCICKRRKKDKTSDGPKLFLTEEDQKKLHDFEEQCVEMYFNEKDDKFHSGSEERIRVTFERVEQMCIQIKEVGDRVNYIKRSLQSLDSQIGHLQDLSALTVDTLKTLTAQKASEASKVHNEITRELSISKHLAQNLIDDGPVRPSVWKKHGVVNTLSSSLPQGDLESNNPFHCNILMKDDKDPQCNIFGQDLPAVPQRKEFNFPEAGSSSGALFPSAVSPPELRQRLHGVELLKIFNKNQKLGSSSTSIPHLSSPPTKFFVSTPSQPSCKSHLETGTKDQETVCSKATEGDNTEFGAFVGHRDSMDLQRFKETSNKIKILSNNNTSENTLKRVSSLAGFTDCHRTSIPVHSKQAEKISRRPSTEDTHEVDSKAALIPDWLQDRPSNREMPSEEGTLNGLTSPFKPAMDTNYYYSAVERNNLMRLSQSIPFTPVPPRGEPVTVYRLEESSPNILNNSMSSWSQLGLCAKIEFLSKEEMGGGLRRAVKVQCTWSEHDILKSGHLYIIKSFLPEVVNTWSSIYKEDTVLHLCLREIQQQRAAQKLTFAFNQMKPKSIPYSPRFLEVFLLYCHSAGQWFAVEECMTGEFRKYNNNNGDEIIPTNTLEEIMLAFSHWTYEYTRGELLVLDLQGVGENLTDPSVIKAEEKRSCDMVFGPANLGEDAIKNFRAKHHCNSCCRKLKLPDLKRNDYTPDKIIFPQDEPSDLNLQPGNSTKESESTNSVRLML
Chain of Serine/threonine-protein kinase Nek1 (Homo sapiens) (Q96PY6 whole entry): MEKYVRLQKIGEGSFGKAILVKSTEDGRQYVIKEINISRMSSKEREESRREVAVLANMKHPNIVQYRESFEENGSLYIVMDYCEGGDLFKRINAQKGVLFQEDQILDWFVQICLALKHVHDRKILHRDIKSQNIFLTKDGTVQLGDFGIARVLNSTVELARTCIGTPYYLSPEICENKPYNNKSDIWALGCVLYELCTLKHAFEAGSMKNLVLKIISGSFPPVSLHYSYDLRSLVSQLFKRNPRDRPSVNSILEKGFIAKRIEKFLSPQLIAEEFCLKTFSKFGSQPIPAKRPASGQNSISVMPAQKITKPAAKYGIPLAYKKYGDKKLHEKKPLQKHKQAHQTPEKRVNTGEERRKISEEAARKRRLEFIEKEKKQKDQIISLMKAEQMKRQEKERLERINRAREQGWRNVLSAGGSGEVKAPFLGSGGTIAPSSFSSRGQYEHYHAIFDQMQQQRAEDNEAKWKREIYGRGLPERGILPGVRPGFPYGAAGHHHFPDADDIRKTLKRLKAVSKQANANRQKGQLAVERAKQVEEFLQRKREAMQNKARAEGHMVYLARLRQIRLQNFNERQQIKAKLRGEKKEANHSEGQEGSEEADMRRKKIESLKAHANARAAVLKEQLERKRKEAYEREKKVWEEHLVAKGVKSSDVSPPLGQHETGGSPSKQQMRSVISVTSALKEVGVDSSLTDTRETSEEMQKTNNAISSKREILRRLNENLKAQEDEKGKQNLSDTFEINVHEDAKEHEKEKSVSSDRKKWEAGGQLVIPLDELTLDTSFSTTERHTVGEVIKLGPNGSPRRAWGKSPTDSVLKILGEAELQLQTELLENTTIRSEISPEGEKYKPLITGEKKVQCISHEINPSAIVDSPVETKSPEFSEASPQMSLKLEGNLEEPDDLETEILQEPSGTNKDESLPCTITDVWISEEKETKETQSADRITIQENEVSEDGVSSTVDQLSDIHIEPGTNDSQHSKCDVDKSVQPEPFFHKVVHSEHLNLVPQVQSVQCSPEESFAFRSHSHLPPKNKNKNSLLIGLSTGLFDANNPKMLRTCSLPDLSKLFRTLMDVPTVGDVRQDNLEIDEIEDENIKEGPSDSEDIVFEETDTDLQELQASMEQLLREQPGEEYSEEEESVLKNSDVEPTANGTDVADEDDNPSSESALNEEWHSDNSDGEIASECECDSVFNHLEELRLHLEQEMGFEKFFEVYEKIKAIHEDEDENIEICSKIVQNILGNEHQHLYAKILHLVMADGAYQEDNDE

What is called IC50 is the point on the concentration scale where inhibition reaches its midpoint. Broadly, the inhibition is the change of the read-out against control, counted positive when it falls. On to `O=c1n(Cc2cncn2-c2cccc(Cl)c2)nc(-c2ccc(Cl)cc2)n1C[C@H](O)C(F)(F)F`, for which the IC50 in assay [1] is listed as > 10 µM (not active). In addition, the inhibition in assay [2] is -0.03%; in assay [3], -2.17%; in assay [4], -9.83%; in assay [5] it was -8.87%; in assay [6], -3.84%; in assay [7] it was 5.54%. Moreover, the inhibition was -0.38% in assay [8], -5% in assay [9] and 25% in [10].

Consider `C[C@H](O)c1nc(Cn2nc(-c3ccc(Cl)cc3)n(C[C@H](O)C(F)(F)F)c2=O)nn1-c1cccc(Cl)c1` [PECAVAPTAN], for which the inhibition in assay [11] is 0%; in assay [12], -2%; in [13] it was 5%; in assay [14] it was -6%; in assay [15] it was 16%; in assay [16], 20%. Besides, the inhibition in assay [17] was 1%; in [18], 0%; in assay [19], -7%; in assay [20] it was -6%; in assay [21], 15%; in assay [23], 30%. Further, the inhibition is -2% in assay [24]; 6% in assay [25]; -4.15% in assay [26]; -8.61% in assay [27]; -3.06% in [28]; -4.34% in assay [29]. Besides, the inhibition in assay [30] is -4.72%. In assay [22], the inhibition at 10 µM is 5% (not active).

For the origin of these results see ChEMBL document CHEMBL5463729, “Data for DCP probe BAY 1753011” (2023).
